Measured values reported in patent US4486594A, “Thiazolidine derivatives and production thereof” (Takeda Chemical Industries, Ltd., priority 1982, dated 1984).

Columns and labels:
[1] = target: T1, partially purified aldose reductase preparation from human placenta (Homo sapiens, UniProt P15121); experiment: Aldose reductase inhibitory action; assay type: biochemical; conditions: 10^-6 M; human placenta enzyme
T1 construct: partially purified aldose reductase preparation from human placenta; from tissue; host or cells: human placenta
Method: Aldose reductase inhibitory action was assayed in accordance with the method disclosed by S. Haymen et al. in Journal of Biological Chemistry, Vol. 240, p. 877 (1965) and that disclosed by Jin H. Kinoshita et al. in Metabolism, Vol. 28, Nr. 4, Suppl. 1, 462 (1979). The enzyme used in the assay was a partially purified aldose reductase preparation from human placenta. The results for the respective compounds were expressed as % inhibition at the concentration of 10^-6 mole and are shown in Table 1.

[2] = tested on: Sorbitol accumulation in sciatic nerve; experiment: Inhibition of sorbitol accumulation in the sciatic nerve of streptozotocin-diabetic rats; assay type: in vivo, Sprague-Dawley rats; conditions: 25 mg/kg orally, twice a day for two days; relative to the control
Method: (§1) Sprague-Dawley rats (male, 5-7 week old, five rats/group) were fasted for 18 hours. The rats were made diabetic by an intravenous injection of 70 mg/kg of streptozotocin (Produced by Cal Biochem) at the site of the tail under ether anesthesia. After the administration of streptozotocin, these rats were administered orally with 25 mg/kg of the test compounds (5% suspension of gum-arabica) for two days twice a day (at 9.00 a.m. and at 4.00 p.m.). During this period, these rats were allowed free access to CE-2 feedstuff (Produced by Clea Japan) and water while determining blood-sugar level of each animal. On the morning of the third day, these rats were decapitated and bled, then the lens and sciatic nerve were quickly excised. The respective contents of sorbitol in the lens and sciatic nerve were determined by the enzymatic assay method described by R. S. Clements et al., in Science, 166, p. 1007 (1969) applied to the extracts of these organs obtained by the method described by M. J. Peterson et al., in Metabolism, 28, 456 (1979).
(§2) The results are shown in the Table below as % inhibition relative to the control. Incidentally, no significant difference in blood-sugar level was observed between the group of test animals to which the test compounds were administered and the control group of the test animals to which no test compounds were administered.

[3] = tested on: Sorbitol accumulation in lens; experiment: Inhibition of sorbitol accumulation in the lens of streptozotocin-diabetic rats; assay type: in vivo, Sprague-Dawley rats; conditions: 25 mg/kg orally, twice a day for two days; relative to the control
Method: as §1, §2

mice = experiment: Oral acute toxicity in mice; assay type: in vivo

inhibition at 1 µM [1] [%] | SMILES | Inhibition of Sorbitol Accumulation (%), Sciatic Nerve [2] [%] | Inhibition of Sorbitol Accumulation (%), Lens [3] [%] | oral LD50 (mice)
34 | O=C1NC(=O)C(c2ccc3c(c2)CCCCC3)S1 (centres unmarked) [Example 1, 5-(6,7,8,9-tetrahydro-5H-benzocycloheptadien-2-yl)thiazolidine-2,4-dione] | 83 | 65 | –
30 | O=C1NC(=O)C(c2ccc3c(c2)CCC3)S1 (centres unmarked) [Example 4, 5-(5-indanyl)thiazolidine-2,4-dione] | 66 | 62 | –
– | Cc1ccc(C2SC(=O)NC2=O)cc1C (centres unmarked) [reference compound] | 5 | 18 | –
– | COc1ccc(C2SC(=O)NC2=O)cc1OC (centres unmarked) [reference compound] | -2 | 62 | –

SMILES | inhibition at 1 µM [1] [%] | Inhibition of Sorbitol Accumulation (%), Sciatic Nerve [2] [%] | Inhibition of Sorbitol Accumulation (%), Lens [3] [%] | oral LD50 (mice)
O=C1NC(=O)C(c2ccc3c(c2)CCCC3)S1 (centres unmarked) [Example 2, 5-(5,6,7,8-tetrahydro-2-naphthyl)thiazolidine-2,4-dione] | 36 | 79 | 73 | no less than 100 mg
